Experimental data published in ChEMBL document CHEMBL1201862, “PubChem BioAssay data set” (2004).
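These data come from cells grown in 96-well plates and exposed to compound for 48 hours at five concentrations. GI50 marks 50% less growth.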 Activity calls are given as the source filed them. No stated cut-off is given here; in the data, active = GI50 up to about 1.1 µM and inactive = higher.

Tests used:
Assay in all cases: DTP human tumour cell line panel, 48 h
[1] = tested on: COLO 205
[2] = tested on: PC-3
[3] = tested on: SK-MEL-2
[4] = tested on: NCI-H226
[5] = tested on: SW-620
[6] = tested on: MDA-N
[7] = tested on: OVCAR-4
[8] = tested on: EKVX
[9] = tested on: SF-295
[10] = tested on: UO-31
[11] = tested on: SK-MEL-28
[12] = tested on: NCI/ADR-RES
[13] = tested on: UACC-62
[14] = tested on: SF-539
[15] = tested on: A549
[16] = tested on: KM12
[17] = tested on: K562
[18] = tested on: RPMI-8226
[19] = tested on: Malme-3M
[20] = tested on: MOLT-4
[21] = tested on: Hs-578T
[22] = tested on: HL-60
[23] = tested on: BT-549
[24] = tested on: HOP-62
[25] = tested on: CCRF-CEM
[26] = tested on: SK-OV-3
[27] = tested on: 786-0
[28] = tested on: OVCAR-8
[29] = tested on: HCC 2998
[30] = tested on: RXF 393
[31] = tested on: HCT-116
[32] = tested on: UACC-257
[33] = tested on: NCI-H23
[34] = tested on: T47D
[35] = tested on: HT-29
[36] = tested on: MCF7
[37] = tested on: HCT-15
[38] = tested on: SN12C
[39] = tested on: U-251
[40] = tested on: SF-268
[41] = tested on: SNB-19
[42] = tested on: CAKI-1
[43] = tested on: SK-MEL-5
[44] = tested on: TK-10
[45] = tested on: LOX IMVI
[46] = tested on: NCI-H460
[47] = tested on: OVCAR-5
[48] = tested on: M14
[49] = tested on: MDA-MB-231
[50] = tested on: IGROV-1
[51] = tested on: SR
[52] = tested on: OVCAR-3
[53] = tested on: ACHN
[54] = tested on: DU-145
[55] = tested on: MDA-MB-435
[56] = tested on: SNB-75
[57] = tested on: NCI-H522
[58] = tested on: HOP-92
[59] = tested on: A498

OCCN=C1c2ccccc2C2C(c3ccccc31)C1c3ccccc3C(=NCCO)c3ccccc3C21 (centres undefined)
GI50 [1]: 15.6 µM (inactive)
GI50 [2]: 17.2 µM (inactive)
GI50 [3]: 16.4 µM (inactive)
GI50 [4]: < 0.01 µM (active)
GI50 [5]: 26.1 µM (inactive)
GI50 [6]: 15.6 µM (inactive)
GI50 [7]: 18.8 µM (inactive)
GI50 [8]: 35.9 µM (inactive)
GI50 [9]: 12.9 µM (inactive)
GI50 [10]: 12.5 µM (inactive)
GI50 [11]: 17.5 µM (inactive)
GI50 [12]: 22.2 µM (inactive)
GI50 [13]: 15.3 µM (inactive)
GI50 [14]: 18 µM (inactive)
GI50 [15]: 20.6 µM (inactive)
GI50 [16]: 17.1 µM (inactive)
GI50 [17]: 12.6 µM (inactive)
GI50 [18]: 13.6 µM (inactive)
GI50 [19]: 32.4 µM (inactive)
GI50 [20]: 8.91 µM (inactive)
GI50 [21]: 12.6 µM (inactive)
GI50 [22]: 13.9 µM (inactive)
GI50 [23]: 23.6 µM (inactive)
GI50 [24]: 18.1 µM (inactive)
GI50 [25]: 11.6 µM (inactive)
GI50 [26]: 22.2 µM (inactive)
GI50 [27]: 28.2 µM (inactive)
GI50 [28]: 26.9 µM (inactive)
GI50 [29]: 22.6 µM (inactive)
GI50 [30]: 22.8 µM (inactive)
GI50 [31]: 15.5 µM (inactive)
GI50 [32]: 24.7 µM (inactive)
GI50 [33]: 44.7 µM (inactive)
GI50 [34]: 21.6 µM (inactive)
GI50 [35]: 15.4 µM (inactive)
GI50 [36]: 20.3 µM (inactive)
GI50 [37]: 17.4 µM
GI50 [38]: 18.6 µM (inactive)
GI50 [39]: 20.2 µM (inactive)
GI50 [40]: 23.2 µM (inactive)
GI50 [41]: 10.7 µM (inactive)
GI50 [42]: 16.3 µM (inactive)
GI50 [43]: 16.8 µM (inactive)
GI50 [44]: 26.4 µM (inactive)
GI50 [45]: 22 µM (inactive)
GI50 [46]: 26.9 µM (inactive)
GI50 [47]: 19.6 µM (inactive)
GI50 [48]: 20.1 µM (inactive)
GI50 [49]: 13.8 µM (inactive)
GI50 [50]: 15.5 µM (inactive)
GI50 [51]: 9.48 µM (inactive)
GI50 [52]: 18.2 µM (inactive)
GI50 [53]: 23.6 µM (inactive)
GI50 [54]: 21.7 µM (inactive)
GI50 [55]: 18 µM (inactive)
GI50 [56]: 20.4 µM (inactive)

CN(C)CCn1c(=O)nc2c3c(c([N+](=O)[O-])ccc31)Nc1ccc(O)cc1-2
GI50 [1]: 2.72 µM (inactive)
GI50 [2]: 4.25 µM (inactive)
GI50 [3]: 15.7 µM (inactive)
GI50 [4]: 3.37 µM (inactive)
GI50 [5]: 1.73 µM (inactive)
GI50 [6]: 6.7 µM (inactive)
GI50 [7]: 9.68 µM (inactive)
GI50 [8]: 8.04 µM (inactive)
GI50 [57]: 1.43 µM (inactive)
GI50 [9]: 7.21 µM (inactive)
GI50 [10]: 3.44 µM (inactive)
GI50 [11]: 14.8 µM (inactive)
GI50 [12]: 34.2 µM (inactive)
GI50 [13]: 4.5 µM (inactive)
GI50 [14]: 1.7 µM (inactive)
GI50 [15]: 2.53 µM (inactive)
GI50 [16]: 5.47 µM (inactive)
GI50 [17]: 2.41 µM (inactive)
GI50 [18]: 4.16 µM (inactive)
GI50 [19]: 3.67 µM (inactive)
GI50 [20]: 0.0638 µM (active)
GI50 [21]: 3.95 µM (inactive)
GI50 [23]: 14.5 µM (inactive)
GI50 [24]: 2.47 µM (inactive)
GI50 [25]: 0.948 µM (active)
GI50 [26]: 15.3 µM (inactive)
GI50 [27]: 1.67 µM (inactive)
GI50 [28]: 1.82 µM (inactive)
GI50 [29]: 2.48 µM (inactive)
GI50 [30]: 1.63 µM (inactive)
GI50 [31]: 1.57 µM (inactive)
GI50 [32]: 8.28 µM (inactive)
GI50 [58]: 2.69 µM (inactive)
GI50 [33]: 5.46 µM (inactive)
GI50 [34]: 2.37 µM (inactive)
GI50 [35]: 0.959 µM (active)
GI50 [36]: 1.32 µM (inactive)
GI50 [37]: 16.7 µM
GI50 [38]: 2.61 µM (inactive)
GI50 [39]: 1.53 µM (inactive)
GI50 [40]: 1.95 µM (inactive)
GI50 [41]: 2.03 µM (inactive)
GI50 [42]: 5.53 µM (inactive)
GI50 [43]: 4.45 µM (inactive)
GI50 [44]: 4.66 µM (inactive)
GI50 [45]: 1.27 µM (inactive)
GI50 [46]: 0.977 µM (active)
GI50 [47]: 15.1 µM (inactive)
GI50 [48]: 13.4 µM (inactive)
GI50 [49]: 2.07 µM (inactive)
GI50 [50]: 1.16 µM (inactive)
GI50 [51]: 1.12 µM (inactive)
GI50 [52]: 2.01 µM (inactive)
GI50 [59]: 6.32 µM (inactive)
GI50 [53]: 3.44 µM (inactive)
GI50 [54]: 4.36 µM (inactive)
GI50 [55]: 10.4 µM (inactive)
GI50 [56]: 6.28 µM (inactive)
